Results as given in US7745576B2, “Polypeptides having antimicrobial activity and polynucleotides encoding same” (Novozymes Adenium Biotech A/S, priority 2005, dated 2010).

Experiments:
Assay type in all cases: cell-based
[1] = test system: Acinetobacter iwoffii ATCC 15309; test: MIC, NCCLS/CLSI M7-A6 dilution susceptibility test; settings: average of two independent evaluations
Procedure: (§1) The antimicrobial peptide shown as amino acids 1 to 21 of SEQ ID NO: 2 was prepared synthetically. The Minimal Inhibitory Concentration (MIC) was determined to test for the antimicrobial activity of Arenicin following the NCCLS guidelines from CLSI (Clinical and Laboratory Standards Institute; formerly known as National Committee for Clinical and Laboratory Standards)—protocol M7-A6, Vol. 20, No. 2: Methods for Dilution Antimicrobial Susceptibility Tests for Bacteria That Grow Aerobically.
(§2) The antimicrobial peptide of the invention was tested against 12 bacterial strains obtained from the American Type Culture Collection (ATCC). The results in Table 1 are average values of two independent evaluations.

[2] = test system: Enterobacter aerogenes ATCC 13048; test: MIC, NCCLS/CLSI M7-A6 dilution susceptibility test; settings: average of two independent evaluations
Procedure: as §1, §2

[3] = test system: Escherichia coli ATCC 25404; test: MIC, NCCLS/CLSI M7-A6 dilution susceptibility test; settings: average of two independent evaluations
Procedure: as §1, §2

[4] = test system: Citrobacter freundii ATCC 8090; test: MIC, NCCLS/CLSI M7-A6 dilution susceptibility test; settings: average of two independent evaluations
Procedure: as §1, §2

[5] = test system: Pseudomonas aeruginosa ATCC 27853; test: MIC, NCCLS/CLSI M7-A6 dilution susceptibility test; settings: average of two independent evaluations
Procedure: as §1, §2

[6] = test system: Escherichia coli ATCC 25922; test: MIC, NCCLS/CLSI M7-A6 dilution susceptibility test; settings: average of two independent evaluations
Procedure: as §1, §2

[7] = test system: Aeromonas salmonicida ATCC 14174; test: MIC, NCCLS/CLSI M7-A6 dilution susceptibility test; settings: average of two independent evaluations
Procedure: as §1, §2

[8] = test system: Enterobacter cloacae ATCC 13047; test: MIC, NCCLS/CLSI M7-A6 dilution susceptibility test; settings: average of two independent evaluations
Procedure: as §1, §2

[9] = test system: Stenotrophomonas maltophlila ATCC 13637; test: MIC, NCCLS/CLSI M7-A6 dilution susceptibility test; settings: average of two independent evaluations
Procedure: as §1, §2

[10] = test system: Shigella sonnei ATCC 11060; test: MIC, NCCLS/CLSI M7-A6 dilution susceptibility test; settings: average of two independent evaluations
Procedure: as §1, §2

[11] = test system: Pseudomonas aeruginosa ATCC 9027; test: MIC, NCCLS/CLSI M7-A6 dilution susceptibility test; settings: average of two independent evaluations
Procedure: as §1, §2

[12] = test system: Moraxella catarrhalis ATCC 25238; test: MIC, NCCLS/CLSI M7-A6 dilution susceptibility test; settings: average of two independent evaluations
Procedure: as §1, §2

[13] = test system: Trichophyton mentagrophytes DSM 4870; test: MIC against clinical fungi, PD broth dilution; settings: 25-27° C., approximately 40 hours
Procedure: (§3) Minimal inhibitory concentrations of Arenicin against yeasts and fungi were determined essentially as described by NCCLS/CLSI (clinical and laboratory standards institute).
(§4) In summary, fungal or yeasts suspension of approximately 1 McFarland unit was diluted 1:100 in PD broth (8 g/L potato dextrose) and growth was assayed against serial 2-fold dilutions of Arenicin (0.03-32 micrograms/mL). Assay plates were incubated at 25-27° C. for Candida albicans, Candida tropicalis, Cryptococcus neoformans, Trichophyton mentagrophytes and Epidermophyton floccosum, and at 30° C. for Candida glabrata, Pichia pastoris, Saccharomyces cerevisiae and Aspergillus niger. Growth was recorded visually (naked eye, oblique illumination) after approximately 40 hours of incubation.

[14] = test system: Saccharomyces cerevisiae DSM 1333; test: MIC against clinical fungi, PD broth dilution; settings: 30° C., approximately 40 hours
Procedure: as §3, §4

[15] = test system: Candida tropicalis DSM 11953; test: MIC against clinical fungi, PD broth dilution; settings: 25-27° C., approximately 40 hours
Procedure: as §3, §4

[16] = test system: Candida glabrata DSM 11226; test: MIC against clinical fungi, PD broth dilution; settings: 30° C., approximately 40 hours
Procedure: as §3, §4

[17] = test system: Aspergillus niger ATCC9642; test: MIC against clinical fungi, PD broth dilution; settings: 30° C., approximately 40 hours
Procedure: as §3, §4

[18] = test system: Pichia pastoris ATCC 20864; test: MIC against clinical fungi, PD broth dilution; settings: 30° C., approximately 40 hours
Procedure: as §3, §4

[19] = test system: Candida albicans ATCC 10231; test: MIC against clinical fungi, PD broth dilution; settings: 25-27° C., approximately 40 hours
Procedure: as §3, §4

[20] = test system: Pichia pastoris ATCC 201178; test: MIC against clinical fungi, PD broth dilution; settings: 30° C., approximately 40 hours
Procedure: as §3, §4

[21] = test system: Cryptococcus neoformans DSM 11959; test: MIC against clinical fungi, PD broth dilution; settings: 25-27° C., approximately 40 hours
Procedure: as §3, §4

[22] = test system: Candida albicans ATCC 28517; test: MIC against clinical fungi, PD broth dilution; settings: 25-27° C., approximately 40 hours
Procedure: as §3, §4

[23] = test system: Candida albicans ATCC 18804; test: MIC against clinical fungi, PD broth dilution; settings: 25-27° C., approximately 40 hours
Procedure: as §3, §4

Arenicin: antimicrobial polypeptide shown as amino acids 1 to 21 of SEQ ID NO: 2 (Arenicola marina), prepared synthetically (MGYSMNIALVYATVLIGVLHV; listed as Arenicola marina)
MIC [1]: 0.25 microgram/mL
MIC [2]: 1 microgram/mL
MIC [3]: 0.5 microgram/mL
MIC [4]: 1 microgram/mL
MIC [5]: 0.5 microgram/mL
MIC [6]: 0.25 microgram/mL
MIC [7]: 2 micrograms/mL
MIC [8]: 1 microgram/mL
MIC [9]: 1 microgram/mL
MIC [10]: 0.5 microgram/mL
MIC [11]: 1 microgram/mL
MIC [12]: <0.06 microgram/mL
MIC [13]: 8 micrograms/mL
MIC [14]: 8 micrograms/mL
MIC [15]: 2 micrograms/mL
MIC [16]: 16 micrograms/mL
MIC [17]: 8 micrograms/mL
MIC [18]: 2 micrograms/mL
MIC [19]: 4 micrograms/mL
MIC [20]: 4 micrograms/mL
MIC [21]: 1 microgram/mL
MIC [22]: 8 micrograms/mL
MIC [23]: 8 micrograms/mL
